Reference: ChEMBL document CHEMBL1124305, “Synthesis and immunological evaluation of N-terminal, noncrossreactive tachykinin antigens” (J Med Chem, 1988)
The source made the active and inactive calls. The calls are words filed in the database; no cut-off is given here.

Experiments:
Format in all cases: functional, organism-based
[1] = species: Mus musculus; test: Determination of serum specificity with immunogen 1-MBSA in ELISA against the respective tachykinins of mice; - indicates Nondetectable interaction
[2] = species: Mus musculus; test: Determination of serum specificity with immunogen 2-MBSA in ELISA against the respective tachykinins of mice; +++ indicates Strong recognition
[3] = species: Mus musculus; test: Determination of serum specificity with immunogen 3-MBSA in ELISA against the respective tachykinins of mice; - indicates Nondetectable interaction

CSCC[C@H](NC(=O)[C@H](CC(C)C)NC(=O)CNC(=O)[C@@H](NC(=O)[C@H](Cc1ccccc1)NC(=O)[C@H](CO)NC(=O)[C@H](CC(=O)O)NC(=O)[C@@H](NC(=O)[C@H](CCCCN)NC(=O)[C@@H](N)Cc1c[nH]cn1)[C@@H](C)O)C(C)C)C(N)=O
Specificity [1]: inactive
Specificity [2]: Active
Specificity [3]: inactive
